According to PubChem BioAssay (NCI):
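Step 1: Grow cells in 96-well plates. Step 2: Expose to compound for 48 hours at 5 concentrations. Step 3: Interpolate endpoints linearly; if unreached, use highest concentration. The concentration for 50% growth inhibition is given as GI50. At the TGI there is no net growth.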

Key:
Experiment in all cases: inhibition of tumour cell growth, NCI panel, 48 h
A498 renal = tested on: A498 renal
BT-549 breast = tested on: BT-549 breast
COLO 205 colon = tested on: COLO 205 colon
MALME-3M melanoma = tested on: MALME-3M melanoma
MOLT-4 leukemia = tested on: MOLT-4 leukemia
OVCAR-3 ovarian = tested on: OVCAR-3 ovarian
OVCAR-5 ovarian = tested on: OVCAR-5 ovarian
SF-268 CNS = tested on: SF-268 CNS
SF-295 CNS = tested on: SF-295 CNS
SR leukemia = tested on: SR leukemia

SMILES	GI50 (A498 renal) [µM]	TGI (A498 renal) [µM]	GI50 (BT-549 breast) [µM]	TGI (BT-549 breast) [µM]	GI50 (COLO 205 colon) [µM]	TGI (COLO 205 colon) [µM]	GI50 (MALME-3M melanoma) [µM]	TGI (MALME-3M melanoma) [µM]	GI50 (MOLT-4 leukemia) [µM]	TGI (MOLT-4 leukemia) [µM]	GI50 (OVCAR-3 ovarian) [µM]	TGI (OVCAR-3 ovarian) [µM]	GI50 (OVCAR-5 ovarian) [µM]	TGI (OVCAR-5 ovarian) [µM]	GI50 (SF-268 CNS) [µM]	TGI (SF-268 CNS) [µM]	GI50 (SF-295 CNS) [µM]	TGI (SF-295 CNS) [µM]	GI50 (SR leukemia) [µM]	TGI (SR leukemia) [µM]
COc1ccc(/C=N/C2=NNC(C)(c3ccccc3O)N2C(Cc2c[nH]c3ccccc23)C(=O)O)cc1 (stereo not drawn)	3.1	9.03	2.24	7.62	1.86	4.44	1.9	6.49	3	13.9	3.05	11.7	3.06	19	3.11	13.8	2.12	7.35	2.76	12.4
CCN1Cc2c(/C=C/c3ccccc3)nc3ccc(OC)cc3c2N(c2cccc(Cl)c2)C1	1.5	3.86	5.73	23	1.59	3	1.68	3.52	1.45	5.02	1.62	3.08	1.49	2.97	1.87	3.67	1.69	3.6	1.71	5.53
CCN(CC)CCC(CNc1c(C)cnc2cc(Cl)ccc12)c1ccc(Cl)c(Cl)c1 (stereo not drawn)	9.4	24.8	8.2	21.3	1.55	3.24	1.88	3.5	2.88	10.1	6.81	21.1	4.62	18.9	8.3	23.8	1.67	3.75	1.93	5.44
COC(=O)C1OC(SCCN)C(O)C(O)C1O (stereo not drawn)		> 100		> 100		> 100		> 100		> 100		> 100		> 100		> 100		> 100		> 100
COc1cc(NC(=O)c2cc3ccccc3cc2O)c(OC)cc1Cl	1.96	5.04	1.65	5.05	2.44	8.51	0.335	2.87	2.27		1.41	4.1	2.25	10.6	3.42	14.4	1.8	4.54	2.02	14.7
Cn1c(=O)c2[nH]c(CCS)nc2n(C)c1=O		> 100		> 100		> 100		> 100		> 100		> 100		> 100		> 100		> 100		> 100
COc1ccc(-n2nc(C(=O)NCC(=O)Nc3nc4cc(OC)ccc4s3)c3ccccc3c2=O)cc1	1.37	10.3	3.04	25.9	0.477	3.89	0.589	2.8	> 100	> 100	0.85		2.32	> 20.7	0.949	5.01	0.346	1.62	> 20.5	> 100
